In PubChem BioAssay AID328 (DTP/NCI, 2004):
Where “and” joins values, the source holds several entries; their conditions need not be identical. Equal values may be shown once. Inconclusive results and toxic doses are left out.

System: BDF1 mice, P388 leukemia ip, median survival T/C
Test: NCI In Vivo Anticancer Drug Screen. Data for tumor model P388 Leukemia (intraperitoneal) in B6D2F1 (BDF1) mice
Details: endpoint: median survival time, higher = longer survival
Summary of the method: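 Each value expresses how treatment altered survival: treated-mouse outcome over vehicle-mouse outcome, both groups bearing the transplanted tumour.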

[1] = dose: 100.0 mg/kg/injection, schedule: Q04DX003 (ip), vehicle: saline
[2] = dose: 100.0 mg/kg/injection, schedule: Q04DX003 (ip), vehicle: saline with Tween-80
[3] = dose: 100.0 mg/kg/injection, schedule: Q04DX003 (ip), vehicle: Klucel (hydroxypropylcellulose) (HPC)
[4] = dose: 200.0 mg/kg/injection, schedule: Q04DX003 (ip), vehicle: Klucel (hydroxypropylcellulose) (HPC)
[5] = dose: 400.0 mg/kg/injection, schedule: Q04DX003 (ip), vehicle: Klucel (hydroxypropylcellulose) (HPC)

Compound: NC(=O)n1nccc1N
- T/C (dose: 100.0 mg/kg/injection, schedule: Q01DX009 (ip), vehicle: saline): 100 % of control
- T/C [1]: 105 % of control
- T/C (dose: 200.0 mg/kg/injection, schedule: Q01DX009 (ip), vehicle: saline): 100 % of control
- T/C (dose: 200.0 mg/kg/injection, schedule: Q04DX003 (ip), vehicle: saline): 115 % of control
- T/C (dose: 400.0 mg/kg/injection, schedule: Q01DX009 (ip), vehicle: saline): 90 % of control
- T/C (dose: 400.0 mg/kg/injection, schedule: Q04DX003 (ip), vehicle: saline): 110 % of control

Compound: Cc1ncc([N+](=O)[O-])n1CCN=[N+]=[N-]
- T/C [2]: 104 % of control
- T/C (dose: 200.0 mg/kg/injection, schedule: Q04DX003 (ip), vehicle: saline with Tween-80): 123 % of control

Compound: CCCNC(=O)/C=C\S(=O)CCC (stereo not given)
- T/C (dose: 25.0 mg/kg/injection, schedule: Q01DX009 (ip), vehicle: saline with Tween-80): 100 % of control
- T/C (dose: 50.0 mg/kg/injection, schedule: Q01DX009 (ip), vehicle: saline with Tween-80): 98 % of control
- T/C (dose: 100.0 mg/kg/injection, schedule: Q01DX009 (ip), vehicle: saline with Tween-80): 112 % of control

Compound: COC(=O)c1cc(C)c(Br)c(OC)c1
- T/C (dose: 12.0 mg/kg/injection, schedule: Q01DX009 (ip), vehicle: Klucel (hydroxypropylcellulose) (HPC)): 95 % of control
- T/C (dose: 25.0 mg/kg/injection, schedule: Q01DX009 (ip), vehicle: Klucel (hydroxypropylcellulose) (HPC)): 90 % of control
- T/C (dose: 50.0 mg/kg/injection, schedule: Q01DX009 (ip), vehicle: Klucel (hydroxypropylcellulose) (HPC)): 90 % of control

Compound: O=C1CC=Nc2ccc([N+](=O)[O-])cc21
- T/C [3]: 100 % of control
- T/C [4]: 90 % of control
- T/C [5]: 95 % of control

Compound: O=S1(=O)CCCCO1
- T/C (dose: 11.0 mg/kg/injection, schedule: Q01DX009 (ip), vehicle: saline): 90 % of control
- T/C (dose: 16.5 mg/kg/injection, schedule: Q01DX009 (ip), vehicle: saline): 100 % of control
- T/C (dose: 25.0 mg/kg/injection, schedule: Q01DX009 (ip), vehicle: saline): 109 % of control
- T/C (dose: 25.0 mg/kg/injection, schedule: Q04DX003 (ip), vehicle: saline): 95 % of control
- T/C (dose: 37.5 mg/kg/injection, schedule: Q01DX009 (ip), vehicle: saline): 100 % of control
- T/C (dose: 50.0 mg/kg/injection, schedule: Q04DX003 (ip), vehicle: saline): 100 % of control
- T/C [1]: 104 % of control

Compound: CN1CCN(CCCN2c3ccccc3Sc3ccc(C(F)(F)F)cc32)CC1
- T/C (dose: 6.25 mg/kg/injection, schedule: Q01DX009 (ip), vehicle: saline): 109 % of control
- T/C (dose: 9.37 mg/kg/injection, schedule: Q01DX009 (ip), vehicle: saline): 118 % of control
- T/C (dose: 9.37 mg/kg/injection, schedule: Q04DX003 (ip), vehicle: saline with Tween-80): 117 % of control
- T/C (dose: 12.5 mg/kg/injection, schedule: Q01DX009 (ip), vehicle: saline): 109 % of control and 118 % of control
- T/C (dose: 18.75 mg/kg/injection, schedule: Q04DX003 (ip), vehicle: saline with Tween-80): 121 % of control
- T/C (dose: 44.0 mg/kg/injection, schedule: Q01DX009 (ip), vehicle: saline with Tween-80): 107 % of control
- T/C (dose: 50.0 mg/kg/injection, schedule: Q04DX003 (ip), vehicle: saline with Tween-80): 113 % of control
- T/C (dose: 75.0 mg/kg/injection, schedule: Q04DX003 (ip), vehicle: saline): 115 % of control
- T/C [2]: 150 % of control and 163 % of control

Compound: CCCC(=O)Nc1ccc(N)cc1OC
- T/C (dose: 5.0 mg/kg/injection, schedule: Q01DX009 (ip), vehicle: saline): 100 % of control
- T/C (dose: 5.0 mg/kg/injection, schedule: Q04DX003 (ip), vehicle: saline): 91 % of control
- T/C (dose: 10.0 mg/kg/injection, schedule: Q01DX009 (ip), vehicle: saline): 100 % of control
- T/C (dose: 10.0 mg/kg/injection, schedule: Q04DX003 (ip), vehicle: saline): 100 % of control
- T/C (dose: 20.0 mg/kg/injection, schedule: Q01DX009 (ip), vehicle: saline): 100 % of control
- T/C (dose: 20.0 mg/kg/injection, schedule: Q04DX003 (ip), vehicle: saline): 91 % of control

Compound: CC(CC(=O)O)(CC(=O)O)c1ccccc1
- T/C (dose: 100.0 mg/kg/injection, schedule: Q01DX009 (ip), vehicle: Klucel (hydroxypropylcellulose) (HPC)): 100 % of control
- T/C [3]: 104 % of control
- T/C (dose: 200.0 mg/kg/injection, schedule: Q01DX009 (ip), vehicle: Klucel (hydroxypropylcellulose) (HPC)): 95 % of control
- T/C [4]: 95 % of control
- T/C (dose: 400.0 mg/kg/injection, schedule: Q01DX009 (ip), vehicle: Klucel (hydroxypropylcellulose) (HPC)): 100 % of control
- T/C [5]: 90 % of control

Compound: COc1cc2ccncc2cc1O
- T/C (dose: 3.13 mg/kg/injection, schedule: Q04DX003 (ip), vehicle: water): 97 % of control
- T/C (dose: 6.25 mg/kg/injection, schedule: Q04DX003 (ip), vehicle: water): 97 % of control
- T/C (dose: 12.5 mg/kg/injection, schedule: Q04DX003 (ip), vehicle: water): 94 % of control
- T/C (dose: 25.0 mg/kg/injection, schedule: Q04DX003 (ip), vehicle: water): 94 % of control
- T/C (dose: 50.0 mg/kg/injection, schedule: Q04DX003 (ip), vehicle: water): 101 % of control
